Laboratory results taken from ChEMBL document CHEMBL5360558, “Molecular design, synthesis and anticancer activity of new thiopyrano[2,3-d]thiazoles based on 5-hydroxy-1,4-naphthoquinone (juglone)” (Eur J Med Chem, 2023).
The source made the active and inactive calls. The rule behind the calls is not given here.

How the values were obtained:
MDA-MB-468 = test: Growth inhibition against human MDA-MB-468 cells assessed as lethal concentration incubated for 48 hrs by sulforhodamine B spectrophotometric assay; assay type: functional; details: read-out: LC50 (the source's name)
PC-3 = test: Growth inhibition against human PC-3 cells assessed as total growth inhibitory concentration incubated for 48 hrs by sulforhodamine B spectrophotometric assay; assay type: functional
CAKI-1 = test: Growth inhibition of human CAKI-1 cells incubated for 48 hrs by sulforhodamine B spectrophotometric assay; assay type: functional
MDA-MB-231 [1] = test: Induction of apoptosis in human MDA-MB-231 cells assessed as increase in caspase-8 level at 5 uM incubated for 24 hrs by flow cytometry analysis; assay type: functional
CCRF-CEM [2] = test: Induction of cell cycle arrest in human CCRF-CEM cells assessed as accumulation of cells at S phase at 20.7 uM incubated for 24 hrs by propidium iodide staining based flow cytometry analysis (reference value: 41.09 +/- 0.5%); assay type: functional
SF-268 = test: Growth inhibition against human SF-268 cells assessed as total growth inhibitory concentration incubated for 48 hrs by sulforhodamine B spectrophotometric assay; assay type: functional
OVCAR-4 [3] = test: Growth inhibition of human OVCAR-4 cells incubated for 48 hrs by sulforhodamine B spectrophotometric assay; assay type: functional
CCRF-CEM [4] = test: Induction of cell cycle arrest in human CCRF-CEM cells assessed as accumulation of cells at G2/M phase at 4.14 uM incubated for 24 hrs by propidium iodide staining based flow cytometry analysis (reference value: 20.24 +/- 0.25%); assay type: functional
DU-145 = test: Growth inhibition against human DU-145 cells assessed as lethal concentration incubated for 48 hrs by sulforhodamine B spectrophotometric assay; assay type: functional; details: read-out: LC50 (the source's name)
UACC-62 [5] = test: Growth inhibition of human UACC-62 cells incubated for 48 hrs by sulforhodamine B spectrophotometric assay; assay type: functional
NCI-H522 = test: Growth inhibition of human NCI-H522 cells incubated for 48 hrs by sulforhodamine B spectrophotometric assay; assay type: functional
RXF 393 = test: Growth inhibition against human RXF 393 cells assessed as total growth inhibitory concentration incubated for 48 hrs by sulforhodamine B spectrophotometric assay; assay type: functional
MDA-MB-231 [6] = test: Induction of mitochondrial membrane potential loss in human MDA-MB-231 cells at 5 uM incubated for 24 hrs by JC-1 staining based flow cytometry analysis; assay type: functional
NCI-H460 = test: Growth inhibition against human NCI-H460 cells assessed as lethal concentration incubated for 48 hrs by sulforhodamine B spectrophotometric assay; assay type: functional; details: read-out: LC50 (the source's name)
SK-OV-3 = test: Growth inhibition against human SK-OV-3 cells assessed as lethal concentration incubated for 48 hrs by sulforhodamine B spectrophotometric assay; assay type: functional; details: read-out: LC50 (the source's name)
CCRF-CEM [7] = test: Induction of cell cycle arrest in human CCRF-CEM cells assessed as accumulation of cells at M phase at 20.7 uM incubated for 24 hrs by propidium iodide staining based flow cytometry analysis (reference value: 1.97 +/- 0.042%); assay type: functional
UACC-257 = test: Growth inhibition against human UACC-257 cells assessed as lethal concentration incubated for 48 hrs by sulforhodamine B spectrophotometric assay; assay type: functional; details: read-out: LC50 (the source's name)
MOLT-4 [8] = test: Growth inhibition against human MOLT-4 cells assessed as total growth inhibitory concentration incubated for 48 hrs by sulforhodamine B spectrophotometric assay; assay type: functional
NCI-H226 = test: Growth inhibition of human NCI-H226 cells incubated for 48 hrs by sulforhodamine B spectrophotometric assay; assay type: functional
ACHN = test: Growth inhibition against human ACHN cells assessed as total growth inhibitory concentration incubated for 48 hrs by sulforhodamine B spectrophotometric assay; assay type: functional
HOP-62 [9] = test: Growth inhibition of human HOP-62 cells incubated for 48 hrs by sulforhodamine B spectrophotometric assay; assay type: functional
SW-620 = test: Growth inhibition against human SW620 cells assessed as lethal concentration incubated for 48 hrs by sulforhodamine B spectrophotometric assay; assay type: functional; details: read-out: LC50 (the source's name)
[10] = Acute toxicity in C57BL/6 mouse assessed as ratio of heart weight to body weight at 20 mg/kg,ip administration and observed after 22 days (reference value: 0.62 +/- 0.08); assay type: organism-based; details: in vivo, 528 h, time 22 day
OVCAR-5 = test: Growth inhibition of human OVCAR-5 cells incubated for 48 hrs by sulforhodamine B spectrophotometric assay; assay type: functional
IGROV-1 = test: Growth inhibition against human IGROV-1 cells assessed as lethal concentration incubated for 48 hrs by sulforhodamine B spectrophotometric assay; assay type: functional; details: read-out: LC50 (the source's name)
KB 3-1 [11] = test: Antiproliferative activity against human KB 3-1 cells assessed as decrease in cell growth at 500 nM incubated for 72 hrs by crystal violet staining based assay; assay type: functional
[12] = Acute toxicity in C57BL/6 mouse assessed as decrease in body mass at 20 mg/kg,ip administration observed after 22 days; assay type: organism-based; details: in vivo, 528 h, time 22 day
SNB-19 = test: Growth inhibition of human SNB-19 cells incubated for 48 hrs by sulforhodamine B spectrophotometric assay; assay type: functional
MOLT-4 [13] = test: Growth inhibition against human MOLT-4 cells assessed as lethal concentration incubated for 48 hrs by sulforhodamine B spectrophotometric assay; assay type: functional; details: read-out: LC50 (the source's name)
SK-MEL-28 = test: Growth inhibition of human SK-MEL-28 cells incubated for 48 hrs by sulforhodamine B spectrophotometric assay; assay type: functional
UO-31 = test: Growth inhibition against human UO-31 cells assessed as total growth inhibitory concentration incubated for 48 hrs by sulforhodamine B spectrophotometric assay; assay type: functional
HOP-62 [14] = test: Growth inhibition against human HOP-62 cells assessed as lethal concentration incubated for 48 hrs by sulforhodamine B spectrophotometric assay; assay type: functional; details: read-out: LC50 (the source's name)
[15] = Antileukemic activity against human CLL cell assessed as cell growth inhibition incubated for 72 hrs during remission period by MTT assay; assay type: functional, cell-based
SN12C = test: Growth inhibition against human SN12C cells assessed as lethal concentration incubated for 48 hrs by sulforhodamine B spectrophotometric assay; assay type: functional; details: read-out: LC50 (the source's name)
RPMI-8226 = test: Growth inhibition of human RPMI-8226 cells incubated for 48 hrs by sulforhodamine B spectrophotometric assay; assay type: functional
MDA-MB-231 [16] = test: Induction of apoptosis in human MDA-MB-231 cells at 10 uM incubated for 24 hrs by Annexin-V-FITC/propidium iodide staining based flow cytometry analysis (reference value: 8.9%); assay type: functional
NCI-H322M = test: Growth inhibition against human NCI-H322M cells assessed as lethal concentration incubated for 48 hrs by sulforhodamine B spectrophotometric assay; assay type: functional; details: read-out: LC50 (the source's name)
OVCAR-4 [17] = test: Growth inhibition against human OVCAR-4 cells assessed as lethal concentration incubated for 48 hrs by sulforhodamine B spectrophotometric assay; assay type: functional; details: read-out: LC50 (the source's name)
MCF7 = test: Growth inhibition of human MCF7 cells incubated for 48 hrs by sulforhodamine B spectrophotometric assay; assay type: functional
KB 3-1 [18] = test: Induction of apoptosis in human KB 3-1 cells assessed as increase in […] protein expression at 0.5 to 5 uM incubated for 3 hrs by Western blotting assay; assay type: functional, cell-based; details: dose 0.5-5 µM
HOP-92 = test: Growth inhibition against human HOP-92 cells assessed as total growth inhibitory concentration incubated for 48 hrs by sulforhodamine B spectrophotometric assay; assay type: functional
BT-549 = test: Growth inhibition against human BT-549 cells assessed as total growth inhibitory concentration incubated for 48 hrs by sulforhodamine B spectrophotometric assay; assay type: functional
UACC-62 [19] = test: Growth inhibition against human UACC-62 cells assessed as total growth inhibitory concentration incubated for 48 hrs by sulforhodamine B spectrophotometric assay; assay type: functional

## O=C1C2=C(C(=O)c3c(O)cccc31)C(c1ccco1)c1sc(=O)[nH]c1S2 (stereo not drawn)
MDA-MB-468
  CC50: > 100 µM
PC-3
  TGI: 21.6 µM
CAKI-1
  GI50: 3.29 µM
MDA-MB-231 [1]
  Activity: 19.5%
CCRF-CEM [2]
  Activity: 42.33%
SF-268
  TGI: 19.2 µM
OVCAR-4 [3]
  GI50: 1.79 µM
CCRF-CEM [4]
  Activity: 23.82%
DU-145
  CC50: 5.81 µM
UACC-62 [5]
  GI50: 1.76 µM
NCI-H522
  GI50: 2.31 µM
RXF 393
  TGI: 5.57 µM
MDA-MB-231 [6]
  Activity: 15.7%
NCI-H460
  CC50: 7.84 µM
SK-OV-3
  CC50: 56.5 µM
CCRF-CEM [7]
  Activity: 1.7%
UACC-257
  CC50: 6.75 µM
MOLT-4 [8]
  TGI: 9.88 µM
NCI-H226
  GI50: 2.18 µM
ACHN
  TGI: 16.1 µM
HOP-62 [9]
  GI50: 2.04 µM
SW-620
  CC50: 52.7 µM
[10]
  Ratio: 0.51
OVCAR-5
  GI50: 2.13 µM
IGROV-1
  CC50: 38 µM
KB 3-1 [11]
  Activity: Active
[12]
  Activity: Toxic
SNB-19
  GI50: 2.6 µM
MOLT-4 [13]
  CC50: > 100 µM
SK-MEL-28
  GI50: 1.87 µM
UO-31
  TGI: 13.5 µM
HOP-62 [14]
  CC50: 6.86 µM
[15]
  IC50: 28.2 µM
SN12C
  CC50: 6.99 µM
RPMI-8226
  GI50: 2.62 µM
MDA-MB-231 [16]
  Activity: 28.2%
NCI-H322M
  CC50: 5.74 µM
OVCAR-4 [17]
  CC50: 8.71 µM
MCF7
  GI50: 1.39 µM
KB 3-1 [18]
  Activity: inactive
HOP-92
  TGI: 8.08 µM
BT-549
  TGI: 3.19 µM
UACC-62 [19]
  TGI: 3.43 µM
